Drawing on ChEMBL document CHEMBL1137095, “Synthesis and radioiodination of selective ligands for the dopamine D3 receptor subtype” (Bioorg Med Chem Lett, 2004), this text covers Ki for seven molecules.

One assay concerns the target T1, D(4) dopamine receptor (Homo sapiens, UniProt P21917).
T1 sequence (P21917 whole entry): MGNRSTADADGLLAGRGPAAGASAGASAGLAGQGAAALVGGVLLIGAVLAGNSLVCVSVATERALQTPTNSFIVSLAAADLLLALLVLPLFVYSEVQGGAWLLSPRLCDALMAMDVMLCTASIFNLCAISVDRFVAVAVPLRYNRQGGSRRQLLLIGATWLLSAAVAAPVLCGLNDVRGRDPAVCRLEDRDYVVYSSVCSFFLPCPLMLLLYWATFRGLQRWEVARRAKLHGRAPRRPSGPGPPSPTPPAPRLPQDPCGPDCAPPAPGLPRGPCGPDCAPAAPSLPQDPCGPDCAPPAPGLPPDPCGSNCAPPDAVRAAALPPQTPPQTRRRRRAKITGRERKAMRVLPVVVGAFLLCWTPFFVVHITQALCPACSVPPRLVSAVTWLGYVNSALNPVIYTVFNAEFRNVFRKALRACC
The assay can be described thus: biochemical.

A further assay concerns the target D(1A) dopamine receptor (Sus scrofa, UniProt P50130). The assay can be described thus: Binding affinity towards D1 receptor from porcine striatal membranes using [3H]-SCH- 23390.
The nature of assay [1]: Binding affinity towards 5-HT2 receptor from porcine cortical membranes using [3H]ketanserin.
The target of assay [2] is T2, D(2) dopamine receptor (Homo sapiens, UniProt P14416). The assay can be described thus: biochemical.
T2 sequence (P14416 whole entry): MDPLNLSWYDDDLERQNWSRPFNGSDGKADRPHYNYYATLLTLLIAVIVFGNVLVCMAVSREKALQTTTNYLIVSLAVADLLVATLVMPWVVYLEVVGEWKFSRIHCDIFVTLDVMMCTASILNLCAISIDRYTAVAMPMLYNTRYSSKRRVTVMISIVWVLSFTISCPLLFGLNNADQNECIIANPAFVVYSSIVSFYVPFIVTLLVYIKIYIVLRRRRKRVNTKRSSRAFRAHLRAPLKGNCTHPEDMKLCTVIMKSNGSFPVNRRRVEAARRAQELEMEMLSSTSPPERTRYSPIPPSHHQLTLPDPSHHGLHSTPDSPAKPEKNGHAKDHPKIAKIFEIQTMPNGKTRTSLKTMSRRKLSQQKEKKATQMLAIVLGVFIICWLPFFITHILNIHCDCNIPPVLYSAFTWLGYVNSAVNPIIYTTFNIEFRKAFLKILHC
Description: Binding affinity towards human D2 short receptor using [3H]spiperone expressed in CHO cells
For the next assay, the target named is D(3) dopamine receptor (Homo sapiens, UniProt P35462). Description: biochemical.
Chain of D(3) dopamine receptor (P35462 whole entry): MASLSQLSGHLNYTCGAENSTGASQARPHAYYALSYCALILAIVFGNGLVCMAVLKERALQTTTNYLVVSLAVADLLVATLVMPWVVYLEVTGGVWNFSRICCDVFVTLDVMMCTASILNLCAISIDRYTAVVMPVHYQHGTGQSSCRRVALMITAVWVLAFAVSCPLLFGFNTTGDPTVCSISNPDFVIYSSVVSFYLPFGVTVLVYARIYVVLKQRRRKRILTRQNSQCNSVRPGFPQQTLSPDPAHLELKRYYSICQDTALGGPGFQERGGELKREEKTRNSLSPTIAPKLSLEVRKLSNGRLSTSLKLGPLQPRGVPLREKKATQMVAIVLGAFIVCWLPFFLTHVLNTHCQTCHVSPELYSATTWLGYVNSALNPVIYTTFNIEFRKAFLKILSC
The target of assay [3] is T2, D(2) dopamine receptor. Description: biochemical. This is another data set of the same source.
Description: Binding affinity towards human D2 long receptor using [3H]spiperone expressed in CHO cells

As usually defined, the Ki is the dissociation constant of the complex between target and ligand, obtained from inhibition or displacement. A higher Ki goes with weaker binding.

Chain of D(1A) dopamine receptor (P50130 whole entry): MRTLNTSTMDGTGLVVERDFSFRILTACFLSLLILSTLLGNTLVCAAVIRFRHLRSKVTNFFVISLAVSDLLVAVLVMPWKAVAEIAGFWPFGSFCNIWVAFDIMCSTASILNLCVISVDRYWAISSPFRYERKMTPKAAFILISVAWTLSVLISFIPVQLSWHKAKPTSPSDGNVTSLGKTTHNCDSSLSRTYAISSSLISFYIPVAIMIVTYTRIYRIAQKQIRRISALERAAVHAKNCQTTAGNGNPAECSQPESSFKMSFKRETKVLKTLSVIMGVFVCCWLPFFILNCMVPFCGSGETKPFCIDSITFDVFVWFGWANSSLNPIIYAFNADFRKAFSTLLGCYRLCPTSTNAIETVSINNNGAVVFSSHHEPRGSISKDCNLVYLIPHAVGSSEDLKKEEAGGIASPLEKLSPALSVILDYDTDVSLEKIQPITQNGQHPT
Description for D(3) dopamine receptor: Binding affinity towards human D3 receptor using [3H]spiperone expressed in CHO cells
Description for D(4) dopamine receptor: Binding affinity towards human D4.4 receptor using [3H]spiperone expressed in CHO cells

Consider `COc1ccccc1N1CCN(CCCCNC(=O)c2cc3cc(I)ccc3o2)CC1`, for which the Ki at D(4) dopamine receptor amounted to 46 nM; at D(1A) dopamine receptor, 420 nM; in assay [1] it was 230 nM; at D(2) dopamine receptor [2], 27 nM; on D(3) dopamine receptor, 1.4 nM.

As for `COc1ccccc1N1CCN(CCCCNC(=O)c2ccc(I)s2)CC1`, the inhibition constant (Ki) was determined as 31 nM at D(4) dopamine receptor; 600 nM on D(1A) dopamine receptor; 690 nM in assay [1]; 35 nM at D(2) dopamine receptor [2]; 75 nM at D(2) dopamine receptor [3]; 2.4 nM at D(3) dopamine receptor.

For the molecule `O=C(NCCCCN1CCN(c2cccc(Cl)c2Cl)CC1)c1cc2cc(I)ccc2s1`, the inhibition constant Ki was determined as 550 nM at D(4) dopamine receptor; 1400 nM on D(1A) dopamine receptor; 290 nM in assay [1]; 140 nM on D(2) dopamine receptor [2]; 450 nM at D(2) dopamine receptor [3]; 4.5 nM on D(3) dopamine receptor.

Take `O=C(NCCCCN1CCN(c2cccc(Cl)c2Cl)CC1)c1cc2cc(I)ccc2o1`: the Ki came out at 2200 nM on D(4) dopamine receptor; 3300 nM on D(1A) dopamine receptor; 790 nM in assay [1]; 430 nM at D(2) dopamine receptor [2]; 3200 nM on D(2) dopamine receptor [3].

On to `COc1ccccc1N1CCN(CCCCNC(=O)c2cc3cc(I)ccc3s2)CC1`, for which the inhibition constant Ki at D(4) dopamine receptor stood at 42 nM; at D(1A) dopamine receptor, 520 nM; in assay [1], 250 nM; at D(2) dopamine receptor [2] it was 1 nM; at D(2) dopamine receptor [3] it was 48 nM; at D(3) dopamine receptor it was 0.86 nM.

Consider `O=C(NCCCCN1CCN(c2cccc(Cl)c2Cl)CC1)c1ccc(I)s1`, for which the Ki on D(4) dopamine receptor is 130 nM; at D(1A) dopamine receptor, 820 nM; in assay [1], 210 nM; at D(2) dopamine receptor [2], 32 nM; on D(2) dopamine receptor [3] it was 89 nM; on D(3) dopamine receptor it was 1.4 nM.

In assay [1], `O=C(NCCCCN1CCN(c2cccc(Cl)c2Cl)CC1)c1cc2ccccc2s1` had a Ki of 3000 nM.
